Laboratory results as given in the supplement of paper PMC11451515.

Legend:
Settings in all cases: 48 h
P12-Ichikawa [1] = assay: cell viability relative to DMSO control; higher = less cytotoxic
Method in brief: (§1)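 Cells were incubated for 48 h at 37°C before CellTiter-Glo One luminescence was read. The cells were NOMO1 or SEM (500 cells/well) or P12-Ichikawa (1000 cells/well) leukemia cells, adapted for at least four passages in each medium and seeded in 1536-well plates (5 μl). Dosing used library compounds in DMSO applied by pin over 11 threefold points, 47 μM to 0.79 nM. Viability is the per-plate percentage of DMSO wells, with cell-free wells as background.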

SEM cells [2] = assay: as above
Method in brief: as §1

NOMO1 [3] = assay: as above
Method in brief: as §1

P12-Ichikawa [4] = assay: AUC of viability dose-response curve (% viability x log10 dose units); higher = less sensitive
Method in brief: (§2)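 In 1536-well plates, leukemia cells adapted to each medium (500 or 1000 cells/well) were exposed for 48 h at 37°C to library compounds in DMSO across 11 threefold doses, 47 μM down to 0.79 nM. Viability was read by CellTiter-Glo One luminescence and normalised per plate to DMSO and cell-free wells. A four-parameter log-logistic fit over log10 doses was integrated by trapezoidal rule. This yielded the area under the curve, with over-full-viability curves scaled and quality-control failures dropped.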

SEM cells [5] = assay: as above
Method in brief: as §2

NOMO1 [6] = assay: as above
Method in brief: as §2

C[C@@H]1COCCN1C\2=C\C(=O)N\3CC[C@H](N(CC4=CN=CC(=C4)Cl)C3=N2)C(F)(F)F
cell viability [%]
Settings | NOMO1 [3] | P12-Ichikawa [1] | SEM cells [2]
HPLM + 10% dialyzed FBS, 0.000781 µM | 90.9 | 94 | 88
HPLM + 10% dialyzed FBS, 0.00234 µM | 95.9 | 101 | 83.8
HPLM + 10% dialyzed FBS, 0.00702 µM | 102 | 98.9 | 91.6
HPLM + 10% dialyzed FBS, 0.0211 µM | 105 | 94.3 | 97.5
HPLM + 10% dialyzed FBS, 0.0632 µM | 124 | 97.5 | 85.9
HPLM + 10% dialyzed FBS, 0.19 µM | 130 | 103 | 97.8
HPLM + 10% dialyzed FBS, 0.569 µM | 112 | 101 | 91.5
HPLM + 10% dialyzed FBS, 1.71 µM | 100 | 104 | 94
HPLM + 10% dialyzed FBS, 5.12 µM | 103 | 85 | 78.8
HPLM + 10% dialyzed FBS, 15.4 µM | 45.4 | 32.7 | 43.2
HPLM + 10% dialyzed FBS, 46.1 µM | 29.4 | 22.5 | 24.8
RPMI 5 mM glucose + 10% FBS, 0.000781 µM | 98 | 91.4 | 109
RPMI 5 mM glucose + 10% FBS, 0.00234 µM | 87.7 | 94.1 | 109
RPMI 5 mM glucose + 10% FBS, 0.00702 µM | 95.1 | 95.7 | 120
RPMI 5 mM glucose + 10% FBS, 0.0211 µM | 93.8 | 89.2 | 96.4
RPMI 5 mM glucose + 10% FBS, 0.0632 µM | 95.4 | 98.3 | 115
RPMI 5 mM glucose + 10% FBS, 0.19 µM | 98.5 | 107 | 117
RPMI 5 mM glucose + 10% FBS, 0.569 µM | 92.7 | 97.2 | 122
RPMI 5 mM glucose + 10% FBS, 1.71 µM | 94.2 | 108 | 88.5
RPMI 5 mM glucose + 10% FBS, 5.12 µM | 96.9 | 76.5 | 74.4
RPMI 5 mM glucose + 10% FBS, 15.4 µM | 57.4 | 40 | 43.4
RPMI 5 mM glucose + 10% FBS, 46.1 µM | 26 | 17.5 | 25.1
RPMI 5 mM glucose + 10% dialyzed FBS, 0.000781 µM | 87.7 | 99.4 | 89.6
RPMI 5 mM glucose + 10% dialyzed FBS, 0.00234 µM | 89.9 | 102 | 92.3
RPMI 5 mM glucose + 10% dialyzed FBS, 0.00702 µM | 91.1 | 106 | 96.9
RPMI 5 mM glucose + 10% dialyzed FBS, 0.0211 µM | 98.4 | 98.8 | 90.9
RPMI 5 mM glucose + 10% dialyzed FBS, 0.0632 µM | 108 | 107 | 83.4
RPMI 5 mM glucose + 10% dialyzed FBS, 0.19 µM | 113 | 99.6 | 98.7
RPMI 5 mM glucose + 10% dialyzed FBS, 0.569 µM | 95.1 | 114 | 107
RPMI 5 mM glucose + 10% dialyzed FBS, 1.71 µM | 89.5 | 99.8 | 89.2
RPMI 5 mM glucose + 10% dialyzed FBS, 5.12 µM | 67.7 | 86 | 71.2
RPMI 5 mM glucose + 10% dialyzed FBS, 15.4 µM | 37 | 30.8 | 42.4
RPMI 5 mM glucose + 10% dialyzed FBS, 46.1 µM | 22 | 17.6 | 34.1

AUC of viability dose-response curve
Settings | NOMO1 [6] | P12-Ichikawa [4] | SEM cells [5]
HPLM + 10% dialyzed FBS | 430 | 417 | 391
RPMI 5 mM glucose + 10% FBS | 418 | 409 | 404
RPMI 5 mM glucose + 10% dialyzed FBS | 400 | 415 | 397
